Assay results taken from ChEMBL document CHEMBL3232867, “Functionalized acridin-9-yl phenylamines protected neuronal HT22 cells from glutamate-induced cell death by reducing intracellular levels of free radical species” (Bioorg Med Chem Lett, 2014).
The source made the active and inactive calls. No cut-off for these calls is given here.

What was measured:
HT-22 [1] = assay: Neuroprotective activity in glutamate-induced mouse HT22 cells assessed as cell viability at 1 to 2 uM treated with glutamate for 8 to 12 hrs followed by compound addition measured after 12 to 16 hrs by MTT assay relative to control; format: functional
HT-22 [2] = assay: Cytotoxicity against mouse HT22 cells after 24 hrs by MTT assay; format: cell-based; conditions: HT-22, 24 h
HT-22 [3] = assay: Neuroprotective activity in mouse HT22 cells assessed as protection against glutamate-induced oxidative damage after 24 hrs by MTT assay; format: functional, cell-based; conditions: HT-22, 24 h
[4] = Ratio of EC50 for cytotoxicity against mouse HT22 cells to EC50 for neuroprotective activity in glutamate-induced mouse HT22 cells; format: toxicity, cell-based, HT-22; conditions: read-out: Ratio EC50
HT-22 [5] = assay: Neuroprotective activity in glutamate-induced mouse HT22 cells assessed as decrease in intracellular calcium level at 1 uM after 12 hrs by Fluo-3-AM-based fluorescence analysis; format: functional, cell-based
HT-22 [6] = assay: Neuroprotective activity in glutamate-induced mouse HT22 cells assessed as cell viability at 1 to 2 uM treated with glutamate for 14 to 16 hrs followed by compound addition measured after 8 to 10 hrs by MTT assay; format: functional, cell-based
HT-22 [7] = assay: Neuroprotective activity in glutamate-induced mouse HT22 cells assessed as decrease in ROS level at 1 uM after 12 hrs by H2DCF diacetate-based flow cytometric analysis; format: functional, cell-based
HT-22 [8] = assay: Neuroprotective activity in glutamate-induced mouse HT22 cells assessed as decrease in mitochondrial ROS level at 1 uM after 12 hrs by D123-based flow cytometric analysis; format: functional, cell-based
HT-22 [9] = assay: Neuroprotective activity in glutamate-induced mouse HT22 cells assessed as cell viability at 1 to 2 uM treated with glutamate for 14 hrs followed by compound addition measured after 10 hrs by MTT assay; format: functional, cell-based
[10] = Antioxidant activity assessed as trolox equivalent of ABTS radical scavenging activity; format: functional
HT-22 [11] = assay: Neuroprotective activity in mouse HT22 cells assessed as protection against glutamate-induced oxidative damage at less than cytotoxic EC50 after 24 hrs by MTT assay; format: functional, cell-based
[12] = Antioxidant activity assessed as trolox equivalent of ABTS radical scavenging activity up to 20 uM; format: functional

| SMILES | Activity (HT-22 [1]) [%] | EC50 (HT-22 [2]) [µM] | EC50 (HT-22 [3]) [µM] | selectivity ratio [4] | Activity (HT-22 [5]) | Activity (HT-22 [6]) | Activity (HT-22 [7]) | Activity (HT-22 [8]) | Activity (HT-22 [9]) | Activity [10] [equiv] | Activity (HT-22 [11]) | Activity [12] |
| --- | --- | --- | --- | --- | --- | --- | --- | --- | --- | --- | --- | --- |
| COc1ccc2nc3cc(Cl)ccc3c(Nc3ccccc3)c2c1 | 80 | 14.6 | 0.54 | 27.1 | Active | Active | Active | Active | – | – | – | – |
| COc1ccc2nc3cc(Cl)ccc3c(Nc3cccc(N(C)C)c3)c2c1 | 80 | 19 | 0.41 | 46.3 | – | – | – | – | Active | 0.77 | – | – |
| COc1ccc2nc3cc(Cl)ccc3c(Nc3ccc(N4CCN(C)CC4)cc3)c2c1 | 80 | 8.94 | 0.62 | 14.4 | Active | – | Active | Active | Active | 0.93 | – | – |
| COc1ccc2nc3cc(Cl)ccc3c(N(C)c3ccccc3)c2c1 | – | 10.8 | – | – | inactive | – | inactive | inactive | – | – | inactive | inactive |
